The source of these data is patent publication US20250066320A1, “Active Ingredients with Sialagogue and Tingling/Fizzy Effect, and Preparations Containing Same” (Symrise AG, priority 2021, published 2025).

This experiment can be described thus: Sensory tasting of the active ingredients (mouth-watering and/or tingling effect) by a trained expert panel. Type of experiment: in vivo, human. The following applies: for Sensory Rating (profile in words): 3 to 7 tasters; for Sensory Rating: intensity of mouth-watering and/or tingling/fizzing effect (figure in brackets): 50 ppm, scale of 1 (very weak) to 10 (very strong). How it is done:
The sensory tasting of the active ingredients according to the invention was carried out as follows: • (1) The active ingredients were each prepared in a 5% sugar solution or in an unflavored standard fondant mass. Fondant is the name for a soft, pasty sugar mass that is used to make various confectionery products. Fondant is made from water and sucrose as well as glucose syrup, invert sugar cream and/or sugar alcohols (e.g., sorbitol or mannitol). The mixture is boiled and then processed into a soft paste by kneading it vigorously and cooling it quickly. • (2) The concentration of the active ingredients was 25 or 50 ppm. • (3) The test samples were tested under practical conditions by a panel of experts with sensory training. For tasting, 3 to 7 tasters each rinsed their mouths with approx. 5 ml of the sugar solution and spat the solution out again. The mouth-watering and/or tingling effect was assessed on a scale of 1 (very weak) to 10 (very strong) and the profile evaluated.

Where [1] appears, read: 50 ppm in 5% sugar solution or unflavored fondant mass.
The mark [2] stands for this setting: 25 ppm in 5% sugar solution or unflavored fondant mass.

With `COc1ccc(C(=O)N2CCN(CCCc3ccccc3)CC2)cc1OC` [Compound 31, (3,4-Dimethoxy-phenyl)-[4-(3-phenyl-propyl)piperazin-1-yl]methanone], the “Sensory Rating: intensity of mouth-watering and/or tingling/fizzing effect (figure in brackets)” value is “tingling/ fizzing (5-6), and mouth-watering, fruity note, Honey flavor”. The “Sensory Rating (profile in words)” value under setting [1] is “tingling/ fizzing (5-6), and mouth-watering, fruity note, Honey flavor”.
Consider `COc1ccc(C(=O)N2CCCN(CCc3ccccc3)CC2)cc1OC` [Compound 32, (3,4-Dimethoxy-phenyl)-[4-(2-phenyl-ethyl)-1,4-diazepan-1-yl]methanone], for which the “Sensory Rating: intensity of mouth-watering and/or tingling/fizzing effect (figure in brackets)” value was “very slightly tingling/ fizzing (1), slightly metallic taste”. Also, the “Sensory Rating (profile in words)” value under setting [1] is on record as “very slightly tingling/ fizzing (1), slightly metallic taste”.
In the case of `COc1ccc(C(=O)N2CCN(Cc3ccccc3)CC2)cc1OC` [Compound 33, (4-benzylpiperazin-1-yl)-(3,4-dimethoxy-phenyl)methanone], the “Sensory Rating: intensity of mouth-watering and/or tingling/fizzing effect (figure in brackets)” value was “very slightly tingling/ fizzing (1-2), slightly like marzipan”. Besides, the “Sensory Rating (profile in words)” value under setting [1] was “very slightly tingling/ fizzing (1-2), slightly like marzipan”.
Take `COc1ccc(C(=O)N2CCN(CCCCc3ccccc3)CC2)cc1` [Compound 34, (4-Methoxy-phenyl)-[4-(4-phenyl-butyl)piperazin-1-yl]methanone]: the “Sensory Rating: intensity of mouth-watering and/or tingling/fizzing effect (figure in brackets)” value came out at 6. For the same compound, the “Sensory Rating (profile in words)” value under setting [2] is “tingling/ fizzing and mouth-watering effect, neutral taste”. Also, under setting [1], the “Sensory Rating (profile in words)” value was “strongly mouth-watering/ tingling/fizzing”.
Consider `COc1ccc(C(=O)N2CCN(CCc3ccccc3)CC2)cc1` [Compound 35, (4-Methoxy-phenyl)-[4-(2-phenyl-ethyl)piperazin-1-yl]methanone], for which the “Sensory Rating: intensity of mouth-watering and/or tingling/fizzing effect (figure in brackets)” value came out at 3. Further, under setting [2], the “Sensory Rating (profile in words)” value is on record as “slightly mouth-watering”. In addition, under setting [1], the “Sensory Rating (profile in words)” value is “slightly tingling/ fizzing (3) and mouth-watering, Acid taste, Honey note”.
With `COc1ccc(C(=O)N2CCN(CCC3CCCCC3)CC2)cc1` [Compound 36, [4-(2-cyclo-hexylethyl)piperazin-1-yl]-(4-methoxy-phenyl) methanone], the “Sensory Rating: intensity of mouth-watering and/or tingling/fizzing effect (figure in brackets)” value is listed as “slightly tingling/fizzing (3), metallic taste”. The “Sensory Rating (profile in words)” value under setting [1] is “slightly tingling/fizzing (3), metallic taste”.
As to `COc1ccc(C(=O)N2CCC(CCCc3ccccc3)CC2)cc1` [Compound 37, (4-Methoxy-phenyl)-[4-(3-phenyl-propyl)-1-piperidyl]methanone], the “Sensory Rating: intensity of mouth-watering and/or tingling/fizzing effect (figure in brackets)” value is “slightly tingling/ fizzing (2), light fruity note”. Also, under setting [1], the “Sensory Rating (profile in words)” value is “slightly tingling/ fizzing (2), light fruity note”.
For `COc1ccc(C(=O)N2CCN(CCCc3ccccc3)CC2)cc1` [Compound 38, (4-Methoxy-phenyl)-[4-(3-phenylpropyl)piperazin-1-yl] methanone], the “Sensory Rating: intensity of mouth-watering and/or tingling/fizzing effect (figure in brackets)” value worked out at 6. Besides, the “Sensory Rating (profile in words)” value under setting [2] was “slightly mouth-watering, anesthetic”. Also, under setting [1], the “Sensory Rating (profile in words)” value is listed as “remarkably tingling/fizzing (6), numbing, Increasing effect over time”.
In the case of `COc1ccc(C(=O)N2CCN(Cc3ccccc3)CC2)cc1` [Compound 40, (4-benzylpiperazin-1-yl)-(4-methoxy-phenyl)methanone], the “Sensory Rating: intensity of mouth-watering and/or tingling/fizzing effect (figure in brackets)” value is given as “mouth-watering, neutral, slightly tingling/ fizzing (1-2)”. Moreover, the “Sensory Rating (profile in words)” value under setting [1] is on record as “mouth-watering, neutral, slightly tingling/ fizzing (1-2)”.
Consider `CCOc1ccc(C(=O)N2CCN(CCCCc3ccccc3)CC2)cc1` [Compound 41, (4-ethoxyphenyl)-[4-(4-phenyl-butyl)piperazin-1-yl]methanone], for which the “Sensory Rating: intensity of mouth-watering and/or tingling/fizzing effect (figure in brackets)” value is on record as 8. Under setting [2], the “Sensory Rating (profile in words)” value is reported as “metallic, mouth- watering effect”. Further, the “Sensory Rating (profile in words)” value under setting [1] was “strong mouth- watering effect (8), long-lasting, Slightly hot”.
On to `CCOc1ccc(C(=O)N2CCN(C/C=C/c3ccccc3)CC2)cc1` [Compound 42, [4-[(E)-cinnamyl]piperazin-1-yl]-(4-ethoxy-phenyl)methanone], for which the “Sensory Rating: intensity of mouth-watering and/or tingling/fizzing effect (figure in brackets)” value was “slightly tingling (3-4), and mouth- watering, fruity, creamy, Vanilla flavor”. Further, the “Sensory Rating (profile in words)” value under setting [1] is “slightly tingling (3-4), and mouth- watering, fruity, creamy, Vanilla flavor”.
As to `CCOc1ccc(C(=O)N2CCN(CCc3ccccc3)CC2)cc1` [Compound 43, (4-ethoxyphenyl)-[4-(2-phenylethyl)piperazin-1-yl]methanone], the “Sensory Rating: intensity of mouth-watering and/or tingling/fizzing effect (figure in brackets)” value came to 7. The “Sensory Rating (profile in words)” value under setting [2] was “metallic, slightly numbing, tingling/fizzing and mouth- watering effect”. Further, the “Sensory Rating (profile in words)” value under setting [1] is “strongly bitter, metallic, tingling/fizzing (7) , and mouth-watering effect”.
As for `CCOc1ccc(C(=O)N2CCN(CCC3CCCCC3)CC2)cc1` [Compound 44, [4-(2-cyclo-hexylethyl)piperazin-1-yl]-(4-ethoxy-phenyl)methanone], the “Sensory Rating: intensity of mouth-watering and/or tingling/fizzing effect (figure in brackets)” value was “slightly tingling/fizzing (4), and mouth-watering”. Further, under setting [1], the “Sensory Rating (profile in words)” value was “slightly tingling/fizzing (4), and mouth-watering”.
On to `CCOc1ccc(C(=O)N2CCC(CCCc3ccccc3)CC2)cc1` [Compound 45, (4-ethoxyphenyl)-[4-(3-phenyl-propyl)-1-piperidyl]-methanone], for which the “Sensory Rating: intensity of mouth-watering and/or tingling/fizzing effect (figure in brackets)” value is recorded as “slightly tin- gling/ fizzing (2)”. In addition, the “Sensory Rating (profile in words)” value under setting [1] was “slightly tin- gling/ fizzing (2)”.
For the compound `CCOc1ccc(C(=O)N2CCN(CCCc3ccccc3)CC2)cc1` [Compound 46, (4-ethoxyphenyl)-[4-(3-phenyl-propyl)piperazin-1-yl]methanone], the “Sensory Rating: intensity of mouth-watering and/or tingling/fizzing effect (figure in brackets)” value worked out at 7. In addition, under setting [2], the “Sensory Rating (profile in words)” value was “metallic, slightly numbing, tingling and mouth- watering effect”. Besides, the “Sensory Rating (profile in words)” value under setting [1] is “strong, bitter, metallic and tingling/fizzing (7), and mouth-watering effect”.
On to `CCOc1ccc(C(=O)N2CCCN(CCc3ccccc3)CC2)cc1` [Compound 47, (4-ethoxyphenyl)-[4-(2-phenylethyl)-1,4-diazepan-1-yl]methanone], for which the “Sensory Rating: intensity of mouth-watering and/or tingling/fizzing effect (figure in brackets)” value was “Strong mouth-watering and tingling/fizzing effect (6), Pleasant taste”. Under setting [1], the “Sensory Rating (profile in words)” value is “Strong mouth-watering and tingling/fizzing effect (6), Pleasant taste”.
As for `CCOc1ccc(C(=O)N2CCN(Cc3ccccc3)CC2)cc1` [Compound 48, (4-benzylpiperazin-1-yl)-(4-ethoxy-phenyl)methanone], the “Sensory Rating: intensity of mouth-watering and/or tingling/fizzing effect (figure in brackets)” value is given as “slightly tingling/ fizzing (1-2)”. For the same compound, the “Sensory Rating (profile in words)” value under setting [1] is “slightly tingling/ fizzing (1-2)”.
